Values of other authors, collected in patent US20090123956A1, “Measurement of the oxidants-antioxidants balance in liquids” (Samsung Electronics Co., Ltd., priority 2006, published 2009).

conditions: change in absorbance at 450 nm (reference 620 or 570 nm) at equivalent molar concentration, uric acid = 1

**Q.** For `N[C@@H](CCC(=O)N[C@@H](CS)C(=O)NCC(=O)O)C(=O)O` [GSH], which “relative activity in compare with uric acid” value (shortened to “relative activity in compare”) is on record?
**A.** about 1

**Q.** With `Cc1c(C)c2c(c(C)c1O)CCC(C)(C(=O)O)O2` (stereo not drawn) [Trolox] as the compound, how does the “relative activity in compare” value read?
**A.** about 1

**Q.** With `O=C1O[C@H]([C@@H](O)CO)C(O)=C1O` [vitamin C] as the compound, how does the “relative activity in compare” value read?
**A.** about 1
